Data reported in US4443436A, “C-20-Modified macrolide derivatives of the macrolide antibiotics tylosin, desmycosin, macrocin, and lactenocin” (Eli Lilly and Company, priority 1982, dated 1984).
≈ marks a conversion by molar mass, not a printed value. Where two headings read alike, the source gives them in different places.

Columns and labels:
Mycoplasma gallisepticum = assay: MIC, broth-dilution microtiter test, Mycoplasma gallisepticum; format: cell-based
Text: (§1) The MIC's in Table X were obtained using conventional broth-dilution microtiter tests.

Mycoplasma hyorhinis = assay: MIC, broth-dilution microtiter test, Mycoplasma hyorhinis; format: cell-based
Text: as §1

Streptococcus bovis 80 = assay: MIC, broth-dilution microtiter test, Streptococcus bovis 80; format: cell-based
Text: as §1

Staphylococcus aureus = assay: MIC, broth-dilution microtiter test, Staphylococcus aureus; format: cell-based
Text: as §1

Mycoplasma synoviae = assay: MIC, broth-dilution microtiter test, Mycoplasma synoviae; format: cell-based; settings: Mycoplasmopsis synoviae
Text: as §1

[1] = tested on: Pasteurella multocida 60A; assay: MIC, broth-dilution microtiter test, Pasteurella multocida 60A; format: cell-based; settings: Pasteurella multocida 60A, avian isolate, broth-dilution microtiter
Text: as §1

[2] = tested on: Pasteurella multocida 17E; assay: MIC, broth-dilution microtiter test, Pasteurella multocida 17E; format: cell-based; settings: Pasteurella multocida 17E, bovine isolate, broth-dilution microtiter
Text: as §1

[3] = tested on: Pasteurella hemolytica 22C; assay: MIC, broth-dilution microtiter test, Pasteurella hemolytica 22C; format: cell-based; settings: Pasteurella hemolytica 22C, broth-dilution microtiter
Text: as §1

[4] = tested on: Staphylococcus aureus X400; assay: MIC, standard agar-dilution assay, Staphylococcus aureus X400; format: cell-based
[5] = tested on: Staphylococcus epidermidis EPI1; assay: MIC, standard agar-dilution assay, Staphylococcus epidermidis EPI1; format: cell-based
[6] = tested on: Streptococcus pyogenes C203; assay: MIC, standard agar-dilution assay, Streptococcus pyogenes C203; format: cell-based
[7] = tested on: Staphylococcus epidermidis EPI2; assay: MIC, standard agar-dilution assay, Staphylococcus epidermidis EPI2; format: cell-based
[8] = tested on: Streptococcus Group D X66; assay: MIC, standard agar-dilution assay, Streptococcus Group D X66; format: cell-based; settings: Streptococcus Group D X66, agar dilution
[9] = tested on: Staphylococcus aureus S13E; assay: MIC, standard agar-dilution assay, Staphylococcus aureus S13E; format: cell-based
Streptococcus Group 9960 = assay: MIC, standard agar-dilution assay, Streptococcus Group 9960; format: cell-based; settings: Streptococcus Group 9960, agar dilution
[10] = tested on: Staphylococcus aureus X1.1; assay: MIC, standard agar-dilution assay, Staphylococcus aureus X1.1; format: cell-based
[11] = tested on: Staphylococcus aureus V41; assay: MIC, standard agar-dilution assay, Staphylococcus aureus V41; format: cell-based
[12] = tested on: Streptococcus pyogenes C203; assay: In vivo protection of mice experimentally infected with S. pyogenes C203; settings: mice, doses given 1 and 4 hours post-infection; for ED50: Streptococcus pyogenes
Procedure: The C-20 modified derivatives of this invention have shown in vivo antimicrobial activity against experimentally-induced infections in laboratory animals. When two doses of test compound were administered to mice experimentally infected with S. pyogenes C203, the activity observed was measured as an ED50 value [effective dose in mg/kg to protect 50% of the test animals: see Warren Wick, et al., J. Bacteriol. 81, 233-235 (1961)].

[13] = tested on: Streptococcus pneumoniae Park I; assay: microbe, parasite or virus in culture; format: cell-based
[14] = tested on: Haemophilus influenzae R252; assay: MIC, standard agar-dilution assay, Haemophilus influenzae R252; format: cell-based
[15] = tested on: Haemophilus influenzae Holt; assay: MIC, standard agar-dilution assay, Haemophilus influenzae Holt; format: cell-based
[16] = Streptococcus equinus, Streptococcus bovis 80, broth-dilution microtiter, read-out: MIC
[17] = Staphylococcus epidermidis, EPI1
[18] = Staphylococcus epidermidis, EPI2

## CCC1OC(=O)CC(O)C(C)C(OC2OC(C)C(OC3CC(C)(O)C(O)C(C)O3)C(N(C)C)C2O)C(CCOS(=O)(=O)c2ccc(C)cc2)CC(C)C(=O)C=CC(C)=CC1COC1OC(C)C(O)C(O)C1OC (centres unmarked) [Compound 56, 20-DH-20-O-(p-Toluenesulfonyl)macrocin]
Mycoplasma gallisepticum; Mycoplasmoides gallisepticum
  MIC: 1.56 µg/mL (≈ 1.47 µM)
Mycoplasma hyorhinis; Mycoplasma hyorhinis, broth-dilution microtiter, read-out: MIC
  MIC: > 50 µg/mL
Streptococcus bovis 80; [16]
  MIC: 6.25 µg/mL (≈ 5.91 µM)
Staphylococcus aureus
  MIC: 3.12 µg/mL (≈ 2.95 µM)
Mycoplasma synoviae
  MIC: 12.5 µg/mL (≈ 11.8 µM)
[1]; read-out: MIC
  MIC: > 50 µg/mL
[2]; read-out: MIC
  MIC: > 50 µg/mL
[3]; read-out: MIC
  MIC: > 50 µg/mL

## CCC1OC(=O)CC(O)C(C)C(OC2OC(C)C(O)C(N(C)C)C2O)C(CCI)CC(C)C(=O)C=CC(C)=CC1COC1OC(C)C(O)C(O)C1OC (centres unmarked) [Compound 57, 20-DH-DO-20-Iodolactenocin]
[4]; Staphylococcus aureus, X400
  MIC: 1 µg/mL (≈ 1.15 µM)
[5]; [17]
  MIC: 0.5 µg/mL (≈ 0.575 µM)
[6]; Streptococcus pyogenes, C203
  MIC: 0.5 µg/mL (≈ 0.575 µM)
Mycoplasma gallisepticum; Mycoplasmoides gallisepticum
  MIC: 3.12 µg/mL (≈ 3.59 µM)
Mycoplasma hyorhinis; Mycoplasma
  MIC: 50 µg/mL (≈ 57.5 µM)
[7]; [18]
  MIC: 0.5 µg/mL (≈ 0.575 µM)
[8]; read-out: MIC
  MIC: 16 µg/mL (≈ 18.4 µM)
Streptococcus bovis 80; Streptococcus equinus, 80
  MIC: 3.12 µg/mL (≈ 3.59 µM)
[9]; Staphylococcus aureus, S13E
  MIC: 0.5 µg/mL (≈ 0.575 µM)
Staphylococcus aureus
  MIC: 0.78 µg/mL (≈ 0.897 µM)
Mycoplasma synoviae
  MIC: 1.56 µg/mL (≈ 1.79 µM)
[1]; read-out: MIC
  MIC: 25 µg/mL (≈ 28.7 µM)
Streptococcus Group 9960; GROUP9960, read-out: MIC
  MIC: 16 µg/mL (≈ 18.4 µM)
[10]; Staphylococcus aureus, X1.1
  MIC: 0.5 µg/mL (≈ 0.575 µM)
[11]; Staphylococcus aureus, V41
  MIC: 0.5 µg/mL (≈ 0.575 µM)
[2]; read-out: MIC
  MIC: 25 µg/mL (≈ 28.7 µM)
[12]; C203, sc, subcutaneous, read-out: ED50, Subcutaneous
  ED50: 5.2 mg/kg
[12]; C203, oral, read-out: ED50, Oral
  ED50: 79 mg/kg
[3]; read-out: MIC
  MIC: 25 µg/mL (≈ 28.7 µM)
[13]; Streptococcus pneumoniae
  MIC: 4 µg/mL (≈ 4.6 µM)

## CCC1OC(=O)CC(O)C(C)C(OC2OC(C)C(OC3CC(C)(O)C(O)C(C)O3)C(N(C)C)C2O)C(CCNC(=O)Cc2ccccc2)CC(C)C(=O)C=CC(C)=CC1COC1OC(C)C(O)C(OC)C1OC (centres unmarked) [Compound 3, 20-DH-DO-20-[N-(Phenylacetyl)amino]tylosin]
[4]; Staphylococcus aureus, X400
  MIC: 2 µg/mL (≈ 1.93 µM)
[5]; [17]
  MIC: 0.5 µg/mL (≈ 0.483 µM)
[6]; Streptococcus pyogenes, C203
  MIC: 2 µg/mL (≈ 1.93 µM)
Mycoplasma gallisepticum; Mycoplasmoides gallisepticum
  MIC: 0.78 µg/mL (≈ 0.753 µM)
Mycoplasma hyorhinis; Mycoplasma
  MIC: 12.5 µg/mL (≈ 12.1 µM)
[7]; [18]
  MIC: 0.5 µg/mL (≈ 0.483 µM)
[8]; read-out: MIC
  MIC: 64 µg/mL (≈ 61.8 µM)
Streptococcus bovis 80; [16]
  MIC: 6.25 µg/mL (≈ 6.04 µM)
[9]; Staphylococcus aureus, S13E
  MIC: 0.5 µg/mL (≈ 0.483 µM)
Staphylococcus aureus
  MIC: 1.56 µg/mL (≈ 1.51 µM)
[14]; Haemophilus influenzae, R252
  MIC: 64 µg/mL (≈ 61.8 µM)
[1]; read-out: MIC
  MIC: > 50 µg/mL
Streptococcus Group 9960; GROUP9960, read-out: MIC
  MIC: 64 µg/mL (≈ 61.8 µM)
[10]; Staphylococcus aureus, X1.1
  MIC: 1 µg/mL (≈ 0.966 µM)
[11]; Staphylococcus aureus, V41
  MIC: 1 µg/mL (≈ 0.966 µM)
[2]; read-out: MIC
  MIC: > 50 µg/mL
[15]; Haemophilus influenzae
  MIC: 128 µg/mL (≈ 124 µM)
[3]; read-out: MIC
  MIC: > 50 µg/mL
[13]; Streptococcus pneumoniae
  MIC: 1 µg/mL (≈ 0.966 µM)

## CCC(=O)OC1C(OC2C(CCCl)CC(C)C(=O)C=CC(C)=CC(COC3OC(C)C(O)C(OC)C3OC)C(CC)OC(=O)CC(O)C2C)OC(C)C(OC2CC(C)(O)C(O)C(C)O2)C1N(C)C (centres unmarked) [Compound 63, 20-DH-DO-20-Chloro-2'-O-propionyltylosin]
[4]; Staphylococcus aureus X400, methicillin-resistant strain, agar dilution
  MIC: 2 µg/mL (≈ 2.01 µM)
[5]; Staphylococcus epidermidis EPI1, agar dilution
  MIC: 1 µg/mL (≈ 1.01 µM)
[6]; Streptococcus pyogenes C203, agar dilution
  MIC: 0.5 µg/mL (≈ 0.504 µM)
Mycoplasma gallisepticum; Mycoplasma gallisepticum, broth-dilution microtiter
  MIC: 1.56 µg/mL (≈ 1.57 µM)
Mycoplasma hyorhinis; Mycoplasma hyorhinis, broth-dilution microtiter
  MIC: 50 µg/mL (≈ 50.4 µM)
[7]; Staphylococcus epidermidis EPI2, agar dilution
  MIC: 1 µg/mL (≈ 1.01 µM)
[8]
  MIC: -- (Not active at 128 mcg/ml, the highest level tested)
Streptococcus bovis 80; Streptococcus bovis 80, broth-dilution microtiter
  MIC: 25 µg/mL (≈ 25.2 µM)
[9]; Staphylococcus aureus S13E, agar dilution
  MIC: 1 µg/mL (≈ 1.01 µM)
Staphylococcus aureus; broth-dilution microtiter
  MIC: 6.25 µg/mL (≈ 6.3 µM)
[14]; Haemophilus influenzae R252, ampicillin-resistant strain, agar dilution
  MIC: -- (Not active at 128 mcg/ml, the highest level tested)
[1]
  MIC: -- (Not active at 50 mcg/ml, the highest level tested)
Streptococcus Group 9960
  MIC: -- (Not active at 128 mcg/ml, the highest level tested)
[10]; Staphylococcus aureus X1.1, agar dilution
  MIC: 1 µg/mL (≈ 1.01 µM)
[11]; Staphylococcus aureus V41, penicillin-resistant strain, agar dilution
  MIC: 1 µg/mL (≈ 1.01 µM)
[2]
  MIC: -- (Not active at 50 mcg/ml, the highest level tested)
[12]; oral
  ED50, Oral: 22 mg/kg × 2
[12]; subcutaneous
  ED50, Subcutaneous: > 6.3 mg/kg × 2
[15]; Haemophilus influenzae Holt, ampicillin-sensitive strain, agar dilution
  MIC: -- (Not active at 128 mcg/ml, the highest level tested)
[3]
  MIC: -- (Not active at 50 mcg/ml, the highest level tested)
[13]; Streptococcus pneumoniae Park I, agar dilution
  MIC: 16 µg/mL (≈ 16.1 µM)
